The text below walks through data of publication PMC5786444, “Structural Basis for the Substrate Inhibition of Proline Utilization A by Proline” (Molecules : A Journal of Synthetic Chemistry and Natural …, 2017).

The target in series [1] is T1, Proline utilization A (BjPutA) (Bradyrhizobium diazoefficiens, UniProt Q89E26, R456M).
T1 construct: gene putA; BjPutA R456M mutant (GSALDH activity measured)
T1 sequence (Q89E26 1-999 R456M): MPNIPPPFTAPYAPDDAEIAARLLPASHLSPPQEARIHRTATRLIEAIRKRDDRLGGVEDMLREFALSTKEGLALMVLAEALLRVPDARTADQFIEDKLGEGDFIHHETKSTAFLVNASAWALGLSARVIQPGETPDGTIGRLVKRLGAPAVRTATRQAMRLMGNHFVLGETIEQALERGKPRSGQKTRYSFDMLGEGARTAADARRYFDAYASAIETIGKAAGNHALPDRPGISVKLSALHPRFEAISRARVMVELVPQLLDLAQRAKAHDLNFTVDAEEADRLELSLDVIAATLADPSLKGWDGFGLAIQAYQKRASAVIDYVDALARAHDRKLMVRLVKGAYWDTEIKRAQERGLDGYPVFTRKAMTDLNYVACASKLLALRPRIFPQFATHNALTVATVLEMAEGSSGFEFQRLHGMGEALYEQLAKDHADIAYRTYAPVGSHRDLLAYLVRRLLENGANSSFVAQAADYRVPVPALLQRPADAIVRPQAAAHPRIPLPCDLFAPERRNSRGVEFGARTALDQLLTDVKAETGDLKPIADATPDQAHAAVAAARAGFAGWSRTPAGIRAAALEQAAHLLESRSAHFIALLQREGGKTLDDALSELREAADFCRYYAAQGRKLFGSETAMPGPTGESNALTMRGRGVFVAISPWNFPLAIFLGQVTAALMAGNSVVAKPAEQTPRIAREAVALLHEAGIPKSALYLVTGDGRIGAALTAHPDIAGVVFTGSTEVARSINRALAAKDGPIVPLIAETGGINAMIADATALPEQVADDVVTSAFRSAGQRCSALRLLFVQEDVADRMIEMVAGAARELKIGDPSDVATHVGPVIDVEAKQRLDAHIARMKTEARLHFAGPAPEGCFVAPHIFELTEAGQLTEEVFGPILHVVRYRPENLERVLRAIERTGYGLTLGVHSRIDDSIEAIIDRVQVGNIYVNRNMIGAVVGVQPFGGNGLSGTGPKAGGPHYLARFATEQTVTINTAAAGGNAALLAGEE
The series is described as follows: steady-state GSALDH kinetics (NADH formation at […] nm), global fit to competitive inhibition. The series is classed as biochemical.

The target in series [2] is T2, Proline utilization A (BjPutA) (Bradyrhizobium diazoefficiens, UniProt Q89E26, C792A).
T2 construct: gene putA; BjPutA C792A; 1949 of 2002 expected residues modeled in the asymmetric unit (dimer)
T2 sequence (Q89E26 1-999 C792A): T1 sequence (Q89E26 1-999 R456M)
The series is described as follows: X-ray crystal structure, […] Å, crystals soaked in […] L-proline. The series is classed as binding.

Another series deals with T3, NC(CCC=O)C(=O)O.
T3 construct: BjPutA R456M mutant (GSALDH activity measured)
The experiment in a line: purified protein. The series is classed as biochemical, Bradyrhizobium diazoefficiens. The settings on record: NAD+ GSAL site of the GSALDH active site.

Consider `O=C(O)[C@@H]1CCCN1` [L-proline], for which the Ki in series [1] was 46.3 mM. Moreover, the “X-ray crystal structure, 2.15 Å, crystals soaked in 2 M L-proline” value in series [2] is “The carboxylate group interacts with Arg791, Ser793, and the backbone amine groups of Gly946 and Ala947”. As for “Proline utilization A (BjPutA) (Bradyrhizobium diazoefficiens USDA 110; R456M)”, the Km in the series on NC(CCC=O)C(=O)O was found to be 2400 µM.

The term Ki denotes the dissociation constant of the complex between target and ligand, obtained from inhibition or displacement. A high value points to a looser hold on the target. What is called Km is the concentration of substrate that gives half-maximal velocity.
